How the values were obtained:
[1] = tested on: mice with severe insulin-dependent diabetes induced by streptozotocin; experiment: Survival of mice with lethal insulin-dependent diabetes, single dose of streptozotocin (Example B); assay type: in vivo, Balb/C mice
Procedure: Female Balb/C mice (14 weeks old) were treated with a single dose of streptozotocin (175 mg/kg i.p.) to induce severe insulin-dependent diabetes. Seven days later, mice were divided into three treatment groups: Compound AH, pioglitazone, and vehicle. Mice were treated daily via oral gavage, and survival was monitored over time.

[2] = tested on: streptozotocin diabetic mice; experiment: Streptozotocin diabetic mice treated with oral Compound AH for 14 weeks (Example A); assay type: in vivo, Balb/C mice; conditions: STZ diabetic mice, 250 mg/kg daily oral, after several weeks of treatment
Procedure: Streptozotocin (STZ) is a toxin that selectively destroys insulin-producing pancreatic beta cells, and is widely used to induce insulin-dependent diabetes in experimental animals.
Female Balb/C mice (8 weeks old; 18-20 grams body weight) were treated with streptozotocin (STZ) (50 mg/kg i.p. on each of five consecutive days). Fourteen days after the last dose of STZ, blood glucose was measured to verify that the animals were diabetic, and the mice were divided into two groups of 5 animals each, one group receiving Compound AH (250 mg/kg) daily by oral gavage, and the other receiving vehicle (0.75% hydroxypropylmethylcellulose, a suspending agent, in water). […] Blood samples were taken periodically for determination of blood glucose concentrations, and body weights were also recorded.

[3] = tested on: high fat-fed Sprague Dawley rats; experiment: Circulating glucose, insulin, triglycerides and free fatty acids in high fat-fed Sprague Dawley rats (Example M); assay type: in vivo; conditions: at all doses (10, 30 and 100 mg/kg)
Procedure: All animals were maintained in a temperature-controlled (25° C.) facility with a strict 12 h light/dark cycle and were given free access to water and food. Rats were fed a high-fat diet (diet number D12451 (containing 45% of calories as fat), Research Diets, New Brunswick, N.J.) for one month prior to drug treatment.
At the indicated time points, blood samples (˜100 μl) were obtained via the tail vein for serum chemistry analysis.

[4] = tested on: high fat-fed C57B1/6J mice; experiment: Circulating triglycerides, free fatty acids, insulin and leptin in high fat-fed C57B1/6J mice (Example L); assay type: in vivo; conditions: oral gavage, after 4 weeks of drug treatment
Text: The high fat-fed mouse is a model for the hypertriglyceridemia and high circulating fatty acid levels, and the insulin and leptin resistance that are found in people at risk for and with obesity, diabetes, cardiovascular disease and other disorders. Male C57B1/6J mice, approximately 8 weeks of age, were randomly assigned into groups of 6 animals. […] Mice were fed a high-fat diet (diet number D12451, containing 45% of calories as fat (Research Diets, New Brunswick, N.J.)) for 6 weeks. […]

[5] = tested on: mice challenged with multiple high doses of STZ; experiment: Mortality in severe insulin-dependent diabetes, multiple high doses of STZ (Example C); assay type: in vivo, balb/C mice; conditions: STZ 75 mg/kg i.p. x 5 days, oral 30 mg/kg/day, after three weeks of daily treatment, 20 mice/group
Procedure: Female balb/C mice (19 wks of age at start of experiment) were challenged with multiple high doses of STZ (75 mg/kg i.p. on 5 consecutive days). Animals were then divided in two groups (20 mice/group) matched for severity of diabetes. Four days after the last dose of STZ, treatments were initiated. One group received Vehicle (0.4 ml of 0.75% HPMC, p.o.), and the other group received oral COMPOUND AA (30 mg/kg/day). After three weeks of daily treatment, cumulative mortality in the Vehicle Control group was 19/20 mice. In contrast, only 5/20 of the COMPOUND AA mice died during this time.

[6] = tested on: ob/ob mice; experiment: Acute hypoglycemic effect in ob/ob obese diabetic mice, Expt 2 (Example G); assay type: in vivo; conditions: Mus musculus, single oral dose 250 mg/kg, 6 hours, read-out: % Reduction vs Control
Procedure: Male ob/ob mice (50-55 grams; blood glucose ˜300 mg/dL) were divided into groups of five animals each, and given a single oral dose of test drug (250 mg/kg) suspended in 0.5% carboxymethylcellulose vehicle; a control group received oral vehicle alone. Six hours after oral administration of test drugs or vehicle (control), blood samples were obtained from a tail vein and glucose content was determined with a glucometer.

[7] = tested on: ob/ob mice
Text: Male lean (ob/+ heterozygote) and obese (ob/ob homozygote) C57BL/6 mice approximately 8 weeks of age were obtained from Jackson Labs (Bar Harbor, Me.) and randomly assigned into groups of 5 animals such that body weights and blood glucose concentrations were similar between groups. […] Blood glucose was routinely determined with glucose test strips and a Glucometer Elite XL device (Bayer Corporation). At selected time points, blood samples (˜100 microliters) were obtained with a heparinized capillary tube via the retro-orbital sinus for serum chemistry analysis.
The dose ranges of compounds in this experiment were chosen to include both suboptimal and potentially supraoptimal doses.

In the case of `O=C(O)CCC(=O)c1ccc(OCc2c(F)cccc2F)cc1` [Compound AH, 4-(4-(2,6-Difluorobenzyloxy)phenyl)-4-oxobutyric acid], the “Survivors (Survival at 12 weeks)” value ([1]; STZ 175 mg/kg i.p. mice, daily oral gavage 250 mg/kg/day) is reported as “Four of the five”, the “body weights of survivors” value ([1]; at 12 weeks, 250 mg/kg/day oral) is reported as “recovered and were maintained in the normal range” and the blood glucose concentrations [2] is reported as “began to decrease toward baseline”.
In the case of `Cc1cccc(C)c1COc1cccc(C(=O)CCC(=O)O)c1` [Compound BI, 4-(3-(2,6-Dimethylbenzyloxy)phenyl)-4-oxobutyric acid], the free fatty acids [3] is reported as “reduced”, the “insulin serum levels (FIG. 1)” value [4] is reported as “effective at lowering” and the “leptin serum levels (FIG. 2)” value [4] is reported as “effective at lowering”.
In the case of `O=C(O)CCC(=O)c1ccc(OCc2ccccc2F)cc1` [Compound AA, 4-(4-(2-Fluorobenzyloxy)phenyl)-4-oxobutyric acid], the “cumulative mortality (mice died)” value [5] is reported as 5/20.
With `Cc1cccc(C)c1COc1cccc(C(=O)CCC(=O)[O-])c1.[Na+]` [Compound BL, 4-(3-(2,6-Dimethylbenzyloxy)phenyl)-4-oxobutyric acid Sodium salt] the “insulin serum levels (FIG. 1)” value [4] was “effective at lowering” and the “leptin serum levels (FIG. 2)” value [4] was “effective at lowering”.
For `O=C(O)CCC(=O)c1cccc(OCc2c(F)cccc2F)c1` [Compound AW, 4-(3-(2,6-Difluorobenzyloxy)phenyl)-4-oxobutyric acid], the change in vivo at 250 mg/kg [6] was -53.1 ± 3.1%, the “serum triglycerides and fatty acids” value ([7]; 100 to 300 mg/kg/day, versus comparators at their optimum antihyperglycemic doses) was “reduced serum triglycerides and fatty acids better than did either rosiglitazone or pioglitazone” and the “reduction in blood glucose” value ([7]; daily oral, over the dose range) was “comparable to that achieved with pioglitazone and rosiglitazone”. For the same molecule, the “serum liver enzymes (ALT, AST, SDH)” value ([7]; doses ranging from 30 mg/kg/day to 300 mg/kg/day) was “dose-dependent decrease” and the “weight gain relative to vehicle-treated mice” value ([7]; four week treatment period, over the dose range) was “dose-dependent attenuation of weight gain”.

Source: US7329782B2, “Compounds for the treatment of metabolic disorders” (Wellstat Therapeutics Corporation, priority 2001, dated 2008)
